Measurements taken from patent US20230109801A1 (Blue Oak Pharmaceuticals, Inc., priority 2020, published 2023).
Counter-ions that a name gives are not always drawn.

Tested on: mice
Experiment: SmartCube in vivo neuropharmacological behavioral assay
Details: for minimal effective dose: Mus musculus, ip, dose having 50% or more total activity in SmartCube, i.p., read-out: MED (minimal effective dose); for AD: antidepressant, percent probability / AG: analgesic, percent probability / AP: antipsychotic, percent probability / AX: anxiolytic, percent probability / CE: cognitive enhancer, percent probability / HA: hallucinogenic, percent probability / MS: mood stabilizer, percent probability / PS, percent probability / SD: sedative hypnotic, percent probability / SE: side effects, percent probability / UN: uncharacterized CNS activity, percent probability / XG: anxiogenic, percent probability: SmartCube, i.p. 15 min before test, at the MED
Procedure, shortened: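 Mice dosed i.p. with compound in Pharmasolve (NMP) 15 min before automated video capture of behavior; doses e.g. 0.3–30 mg/kg. Behavioral signature compared with reference-drug classes, giving per-class probability (0–100, 0 = LOQ); MED = lowest dose with ≥50% total activity.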

SMILES	minimal effective dose	AD: antidepressant, percent probability	AG: analgesic, percent probability	AP: antipsychotic, percent probability	AX: anxiolytic, percent probability	CE: cognitive enhancer, percent probability	HA: hallucinogenic, percent probability	MS: mood stabilizer, percent probability	PS, percent probability	SD: sedative hypnotic, percent probability	SE: side effects, percent probability	UN: uncharacterized CNS activity, percent probability	XG: anxiogenic, percent probability
CC1CC2c3ccccc3C1N2C(C)C (centres unmarked) [Compound 51, 9-Methyl-11-(propan-2-yl)-11-azatricyclo[6.2.1.0^2,7]undeca-2,4,6-tri ene hydrochloride]	1 to 10 mg/kg	++++ (50% ≤ X <1 00%)	+ (LOQ ≤ X < 5%)	+ (LOQ ≤ X < 5%)	++ (5% ≤ X < 25%)	+ (LOQ ≤ X < 5%)	++ (5% ≤ X < 25%)	+ (LOQ ≤ X < 5%)	++ (5% ≤ X < 25%)	+ (LOQ ≤ X < 5%)	+ (LOQ ≤ X < 5%)	+ (LOQ ≤ X < 5%)	+ (LOQ ≤ X < 5%)
C1=CC2NC1c1ccccc12 [Compound 52, 11-Azatricyclo[6.2.1.0^2,7]undeca-2,4,6,9-tetraene hydrochloride]	> 30 mg/kg	+ (LOQ ≤ X < 5%)	+ (LOQ ≤ X < 5%)	+ (LOQ ≤ X < 5%)	+ (LOQ ≤ X < 5%)	+ (LOQ ≤ X < 5%)	+ (LOQ ≤ X < 5%)	+ (LOQ ≤ X < 5%)	+ (LOQ ≤ X < 5%)	+ (LOQ ≤ X < 5%)	+ (LOQ ≤ X < 5%)	+ (LOQ ≤ X < 5%)	+ (LOQ ≤ X < 5%)
CC(C)N1C2C=CC1c1ccccc12 [Compound 53, 11-(Propan-2-yl)-11-azatricyclo[6.2.1.0^2,7]undeca-2,4,6,9-tetraene hydrochloride]	10 to 30 mg/kg	++ (5% ≤ X < 25%)	++ (5% ≤ X < 25%)	+ (LOQ ≤ X < 5%)	++ (5% ≤ X < 25%)	+ (LOQ ≤ X < 5%)	+ (LOQ ≤ X < 5%)	+ (LOQ ≤ X < 5%)	++ (5% ≤ X < 25%)	+ (LOQ ≤ X < 5%)	+ (LOQ ≤ X < 5%)	++ (5% ≤ X < 25%)	+ (LOQ ≤ X < 5%)
C1=CC2c3ccccc3C1N2C1CCCC1 [Compound 54, 11-Cyclopentyl-11-azatricyclo[6.2.1.0^2,7]undeca-2,4,6,9-tetraene hydrochloride]	10 to 30 mg/kg	++++ (50% ≤ X <1 00%)	++ (5% ≤ X < 25%)	+ (LOQ ≤ X < 5%)	++ (5% ≤ X < 25%)	+ (LOQ ≤ X < 5%)	+ (LOQ ≤ X < 5%)	+ (LOQ ≤ X < 5%)	++ (5% ≤ X < 25%)	+ (LOQ ≤ X < 5%)	+ (LOQ ≤ X < 5%)	++ (5% ≤ X < 25%)	+ (LOQ ≤ X < 5%)
CCC(C)N1C2C=CC1c1ccccc12 (centres unmarked) [Compound 55, 11-(Butan-2-yl)-11-azatricyclo[6.2.1.0^2,7]undeca-2,4,6,9-tetraene hydrochloride]	10 to 30 mg/kg	+++ (25% ≤ X < 50%)	+ (LOQ ≤ X < 5%)	+ (LOQ ≤ X < 5%)	++ (5% ≤ X < 25%)	+ (LOQ ≤ X < 5%)	+ (LOQ ≤ X < 5%)	+ (LOQ ≤ X < 5%)	++ (5% ≤ X < 25%)	+ (LOQ ≤ X < 5%)	+ (LOQ ≤ X < 5%)	+++ (25% ≤ X < 50%)	+ (LOQ ≤ X < 5%)
C1=CC2c3ccccc3C1N2C1CC1 [Compound 56, 11-Cyclopropyl-11-azatricyclo[6.2.1.0^2,7]undeca-2,4,6,9-tetraene hydrochloride]	10 to 30 mg/kg	++ (5% ≤ X < 25%)	+ (LOQ ≤ X < 5%)	++ (5% ≤ X < 25%)	++ (5% ≤ X < 25%)	++ (5% ≤ X < 25%)	+ (LOQ ≤ X < 5%)	+ (LOQ ≤ X < 5%)	+ (LOQ ≤ X < 5%)	+ (LOQ ≤ X < 5%)	+ (LOQ ≤ X < 5%)	+++ (25% ≤ X < 50%)	+ (LOQ ≤ X < 5%)
COCC(C)N1C2C=CC1c1ccccc12 (centres unmarked) [Compound 57, 11-(1-Methoxypropan-2-yl)-11-azatricyclo[6.2.1.0^2,7]undeca-2,4,6,9-tetraene hydrochloride]	> 30 mg/kg	++ (5% ≤ X < 25%)	+ (LOQ ≤ X < 5%)	+ (LOQ ≤ X < 5%)	+ (LOQ ≤ X < 5%)	+ (LOQ ≤ X < 5%)	+ (LOQ ≤ X < 5%)	+ (LOQ ≤ X < 5%)	+ (LOQ ≤ X < 5%)	+ (LOQ ≤ X < 5%)	+ (LOQ ≤ X < 5%)	+ (LOQ ≤ X < 5%)	+ (LOQ ≤ X < 5%)
CC(C)C(C)N1C2C=CC1c1ccccc12 (centres unmarked) [Compound 58, 11-(3-Methylbutan-2-yl)-11-azatricyclo[6.2.1.0^2,7]undeca-2,4,6,9-tetraene hydrochloride]	> 30 mg/kg	++ (5% ≤ X < 25%)	+ (LOQ ≤ X < 5%)	+ (LOQ ≤ X < 5%)	+ (LOQ ≤ X < 5%)	+ (LOQ ≤ X < 5%)	+ (LOQ ≤ X < 5%)	+ (LOQ ≤ X < 5%)	+ (LOQ ≤ X < 5%)	+ (LOQ ≤ X < 5%)	+ (LOQ ≤ X < 5%)	+ (LOQ ≤ X < 5%)	+ (LOQ ≤ X < 5%)
CC1=C(C)C2NC1c1ccccc12 [Compound 59, 9,10-Dimethyl-11-azatricyclo[6.2.1.0^2,7]undeca-2,4,6,9-tetraene hydrochloride]	10 to 30 mg/kg	++++ (50% ≤ X <1 00%)	+ (LOQ ≤ X < 5%)	+ (LOQ ≤ X < 5%)	++ (5% ≤ X < 25%)	++ (5% ≤ X < 25%)	++ (5% ≤ X < 25%)	+ (LOQ ≤ X < 5%)	+ (LOQ ≤ X < 5%)	+ (LOQ ≤ X < 5%)	+ (LOQ ≤ X < 5%)	+ (LOQ ≤ X < 5%)	+ (LOQ ≤ X < 5%)
CC1=C(C)C2c3ccccc3C1N2C(C)C [Compound 60, 9,10-Dimethyl-11-(propan-2-yl)-11-azatricyclo[6.2.1.0^2,7]undeca-2,4,6,9-tetraene hydrochloride]	10 to 30 mg/kg	++++ (50% ≤ X <1 00%)	++ (5% ≤ X < 25%)	+ (LOQ ≤ X < 5%)	+ (LOQ ≤ X < 5%)	+ (LOQ ≤ X < 5%)	+ (LOQ ≤ X < 5%)	+ (LOQ ≤ X < 5%)	++ (5% ≤ X < 25%)	+ (LOQ ≤ X < 5%)	+ (LOQ ≤ X < 5%)	+ (LOQ ≤ X < 5%)	+ (LOQ ≤ X < 5%)
CC1=CC2NC1c1ccccc12 (centres unmarked) [Compound 61, 9-Methyl-11-azatricyclo[6.2.1.0^2,7]undeca-2,4,6,9-tetraene hydrochloride]	> 30 mg/kg	++ (5% ≤ X < 25%)	++ (5% ≤ X < 25%)	+ (LOQ ≤ X < 5%)	+ (LOQ ≤ X < 5%)	+ (LOQ ≤ X < 5%)	+ (LOQ ≤ X < 5%)	+ (LOQ ≤ X < 5%)	+ (LOQ ≤ X < 5%)	+ (LOQ ≤ X < 5%)	+ (LOQ ≤ X < 5%)	+ (LOQ ≤ X < 5%)	+ (LOQ ≤ X < 5%)
